Calls of active or inactive are those of the source.
What was measured:
[1] = target: Sphingosine 1-phosphate receptor 4 (Homo sapiens, UniProt O95977); experiment: Fluorescence dose response cell-based high throughput screening assay for antagonists of the Sphingosine 1-Phosphate Receptor 4 (S1P4). [Related pubchem assays: 1524 (Confirmation in triplicates.), 1510 (Primary screen.)]; assay type: functional
[2] = target: Sphingosine 1-phosphate receptor 1 (Homo sapiens, UniProt P21453); assay type: functional;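 further: Tango beta-arrestin reporter U2OS cells stimulated with S1P near its EC80; inhibitor potency meaning antagonism of receptor activation by the natural agonist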
[3] = target: T1, Neuropeptide Y receptor type 2 (Homo sapiens, UniProt P49146); experiment: NPY-Y2 antagonist potency, selectivity check, dose response, counter-screen for NPY-Y1 antagonist project, cell-based (AID 1278); assay type: functional
T1 sequence (P49146 whole entry): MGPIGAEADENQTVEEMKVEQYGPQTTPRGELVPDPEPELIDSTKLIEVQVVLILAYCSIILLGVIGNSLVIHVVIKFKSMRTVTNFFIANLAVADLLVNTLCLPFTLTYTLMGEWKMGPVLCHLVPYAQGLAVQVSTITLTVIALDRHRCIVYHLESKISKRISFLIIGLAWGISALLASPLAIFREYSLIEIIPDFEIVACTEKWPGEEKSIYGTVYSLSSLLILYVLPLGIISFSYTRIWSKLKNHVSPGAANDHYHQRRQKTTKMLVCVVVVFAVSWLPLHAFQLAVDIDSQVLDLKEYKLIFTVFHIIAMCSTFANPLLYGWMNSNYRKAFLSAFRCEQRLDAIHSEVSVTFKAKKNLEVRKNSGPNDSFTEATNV

[4] = target: T2, Neuropeptide Y receptor type 1 (Homo sapiens, UniProt P25929); experiment: NPY-Y1 receptor antagonist potency, dose response, cell-based (AID 1277); assay type: functional
T2 sequence (P25929 whole entry): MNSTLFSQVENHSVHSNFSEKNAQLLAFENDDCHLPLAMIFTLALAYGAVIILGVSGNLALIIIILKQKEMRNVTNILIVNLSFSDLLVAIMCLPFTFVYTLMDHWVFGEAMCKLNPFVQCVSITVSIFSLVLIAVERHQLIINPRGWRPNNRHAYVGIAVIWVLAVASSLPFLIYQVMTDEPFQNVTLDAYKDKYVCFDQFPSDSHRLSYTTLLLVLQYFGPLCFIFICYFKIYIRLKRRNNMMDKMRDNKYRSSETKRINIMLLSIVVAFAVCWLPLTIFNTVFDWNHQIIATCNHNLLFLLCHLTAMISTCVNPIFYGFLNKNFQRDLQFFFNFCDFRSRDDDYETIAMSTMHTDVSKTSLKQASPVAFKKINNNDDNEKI

Estrogen receptor [5] = target: T3, Estrogen receptor (Homo sapiens, UniProt P03372); experiment: potentiators of ERα–SRC-1 coactivator binding, dose response, biochemical, TR-FRET, ERα LBD (AID 737)
T3 sequence (P03372 whole entry): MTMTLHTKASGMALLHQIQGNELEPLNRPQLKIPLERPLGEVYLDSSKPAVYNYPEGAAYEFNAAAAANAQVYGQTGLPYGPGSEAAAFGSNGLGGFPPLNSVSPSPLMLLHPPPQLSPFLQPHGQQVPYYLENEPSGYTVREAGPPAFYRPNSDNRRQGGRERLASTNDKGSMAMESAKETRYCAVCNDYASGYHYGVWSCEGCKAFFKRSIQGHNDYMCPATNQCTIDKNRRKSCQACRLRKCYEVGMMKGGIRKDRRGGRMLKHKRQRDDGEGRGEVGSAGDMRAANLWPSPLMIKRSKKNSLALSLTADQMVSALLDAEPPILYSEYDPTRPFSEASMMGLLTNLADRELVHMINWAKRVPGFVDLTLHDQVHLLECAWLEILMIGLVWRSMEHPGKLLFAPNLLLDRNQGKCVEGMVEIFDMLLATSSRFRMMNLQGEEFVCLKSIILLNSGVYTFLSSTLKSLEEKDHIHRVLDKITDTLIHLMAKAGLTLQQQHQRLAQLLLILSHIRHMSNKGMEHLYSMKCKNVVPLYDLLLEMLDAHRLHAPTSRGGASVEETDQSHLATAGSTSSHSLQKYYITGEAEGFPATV

[6] = Shn3 3'UTR reporter inhibitors, dose response, cell-based, Clone20 osteoblasts, firefly luciferase, cherry-picked (AID 624132); assay type: functional;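 further: firefly luciferase luminescence from reporter carrying the Shn3 3'UTR in osteoblasts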
[7] = HepG2 cell cytotoxicity, dose response, cytotoxicity control for Shn3 inhibitor project, CellTiter-Glo, cherry-picked (AID 624134); assay type: functional, cell-based
[8] = control 3'UTR Renilla luciferase suppression, dose response, counter-screen for Shn3 inhibitor project, cell-based, Clone20-Shn3RL, cherry-picked (AID 624133); assay type: functional
Bcl-2-like protein 10 = target: T4, Bcl-2-like protein 10 (Homo sapiens, UniProt Q9HD36); experiment: Biochemical TR3 FP assay of Bcl-B inhibitor potency, EC50 (AID 1243); assay type: functional
T4 sequence (Q9HD36 whole entry): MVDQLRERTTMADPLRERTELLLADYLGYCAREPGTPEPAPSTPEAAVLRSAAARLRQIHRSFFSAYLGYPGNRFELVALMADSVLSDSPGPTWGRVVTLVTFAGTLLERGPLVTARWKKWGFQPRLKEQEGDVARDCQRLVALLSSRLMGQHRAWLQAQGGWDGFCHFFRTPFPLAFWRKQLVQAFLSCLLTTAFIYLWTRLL

[9] = target: T5, Heat shock 70 kDa protein 1A (Homo sapiens, UniProt P0DMV8); experiment: Hsp70 inhibitors, biochemical, TR-FRET (AID 786)
[10] = target: T5, Heat shock 70 kDa protein 1A; experiment: Hsp70 inhibitors, probe displacement, primary screen, biochemical, fluorescence polarization (AID 583)
Estrogen receptor [11] = target: T3, Estrogen receptor
Estrogen receptor beta [12] = target: T6, Estrogen receptor beta (Homo sapiens, UniProt Q92731);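 further: recombinant ER-beta bound to coactivator SRC1 peptide in presence of estradiol agonist; inhibitors block coactivator peptide binding and lower the FRET signal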
Estrogen receptor beta [13] = target: T6, Estrogen receptor beta; experiment: ERβ–SRC-3 coactivator interaction inhibitors, confirmation, orthogonal assay, biochemical, ELISA, streptavidin-HRP readout (AID 1060)
[14] = Luminescence Cell-Based Dose Retest to Confirm Inhibitors of Cancer Stem Cells. [Related pubchem assays (depositor defined):AID2717, AID2721]; assay type: functional; conditions: Homo sapiens
[15] = target: Peroxisome proliferator-activated receptor gamma/Nuclear receptor coactivator 2 (Homo sapiens, UniProt P37231); assay type: functional;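 further: agonist potency for raising coactivator recruitment to the receptor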
[16] = target: Peroxisome proliferator-activated receptor gamma/Nuclear receptor coactivator 1 (Homo sapiens, UniProt P37231); assay type: functional;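 further: agonist potency as compounds enhance coactivator SRC-1 recruitment to PPARgamma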
[17] = Luminescence Cell-Based Dose Confirmation HTS to Identify Activators of 5'UTR Stem-Loop Driven Alpha-Synuclein mRNA Translation in H4 Neuroglioblastoma Cells. [Related pubchem assays: 1829 (Project Summary), 1814 (Primary HTS)]; assay type: functional
[18] = Luminescence Cell-Based Dose Response HTS to Identify Activators of Luciferase Translation or Activity in H4 […] Cells. [Related pubchem assays: 1829 (Project Summary), 1814 (Primary HTS)]; assay type: functional
[19] = target: Peroxisome proliferator-activated receptor gamma/Nuclear receptor coactivator 3 (Homo sapiens, UniProt P37231); assay type: functional;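 further: agonist potency for raising coactivator recruitment to the receptor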
H4 = experiment: Luminescence Cell-Based Dose Response HTS to Identify Activators of 5'UTR Stem-Loop Driven Prion Protein mRNA Translation in H4 Neuroglioblastoma Cells. [Related pubchem assays: 1829 (Project Summary), 1814 (Primary HTS)]; assay type: functional; conditions: Homo sapiens
[20] = target: Protein-tyrosine kinase 2-beta (Homo sapiens, UniProt Q14289);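 further: potency of inhibitors of PYK2 kinase phosphorylation of poly-GT substrate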
CHO-K1 = experiment: Counterscreen for antagonists of the orexin 1 receptor (OX1R; HCRTR1): Homogeneous time resolved fluorescence (HTRF)-based cell-based dose response assay to identify antagonists of the parental CHO-K1 cell line. [Related pubchem assays (depositor defined):AID434989, AID435008, AID463079, AID485270, AID492963, AID492964, AID492965, AID493232, AID504699, AID504701]; assay type: functional; conditions: Cricetulus griseus;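 further: potency for inhibition of ATP-stimulated IP1 production as antagonists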
[21] = Counterscreen for antagonists of the orexin 1 receptor (OX1R; HCRTR1): Fluorescence-based cell-based high throughput dose response assay to identify antagonists of the parental CHO cell line. [Related pubchem assays (depositor defined):AID434989, AID435008, AID463079, AID485270, AID492963, AID492964, AID492965, AID493232, AID504699, AID504701]; assay type: functional
[22] = target: T7, Orexin/Hypocretin receptor type 1 (Homo sapiens, UniProt O43613); experiment: Homogeneous Time Resolved Fluorescence (HTRF)-based cell-based high throughput dose response assay for antagonists of the orexin 1 receptor (OX1R; HCRTR1). [Related pubchem assays (depositor defined):AID434989, AID435008, AID463079, AID485270, AID492963, AID492964, AID492965, AID493232, AID504717, AID504718]; assay type: functional
T7 sequence (O43613 whole entry): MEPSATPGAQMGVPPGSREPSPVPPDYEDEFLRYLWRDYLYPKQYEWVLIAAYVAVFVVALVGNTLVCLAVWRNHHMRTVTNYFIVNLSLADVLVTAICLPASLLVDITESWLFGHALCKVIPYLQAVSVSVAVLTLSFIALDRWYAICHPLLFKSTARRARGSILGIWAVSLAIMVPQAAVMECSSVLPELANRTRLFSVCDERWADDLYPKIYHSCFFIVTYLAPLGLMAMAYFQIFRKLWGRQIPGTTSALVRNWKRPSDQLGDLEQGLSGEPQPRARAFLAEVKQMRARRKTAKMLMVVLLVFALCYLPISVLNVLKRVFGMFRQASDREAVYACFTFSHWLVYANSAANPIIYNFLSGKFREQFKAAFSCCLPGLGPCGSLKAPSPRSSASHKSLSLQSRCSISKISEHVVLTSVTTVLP

[23] = target: T7, Orexin/Hypocretin receptor type 1; experiment: Fluorescence-based cell-based high throughput dose response assay for antagonists of the orexin 1 receptor (OX1R; HCRTR1). [Related pubchem assays (depositor defined):AID434989, AID435008, AID463079, AID485270, AID492963, AID492964, AID492965, AID493232, AID504717, AID504718]; assay type: functional
Cytochrome P450 2C19 = Cytochrome P450 2C19 (Homo sapiens, UniProt P33261); experiment: Cytochrome panel assay with activity outcomes. Panel member name: p450-cyp2c19 Compounds with AC50 equal or less than 10 uM are considered active; assay type: functional; conditions: read-out: AC50
Orexin receptor type 2 [24] = target: T8, Orexin receptor type 2 (Homo sapiens, UniProt O43614); experiment: Counterscreen assay for antagonists of the orexin 1 receptor (OX1R; HCRTR1): Fluorescence-based cell-based dose response assay for antagonists of the orexin 2 receptor (OX2R; HCRTR2), run by assay provider.; assay type: functional
T8 sequence (O43614 whole entry): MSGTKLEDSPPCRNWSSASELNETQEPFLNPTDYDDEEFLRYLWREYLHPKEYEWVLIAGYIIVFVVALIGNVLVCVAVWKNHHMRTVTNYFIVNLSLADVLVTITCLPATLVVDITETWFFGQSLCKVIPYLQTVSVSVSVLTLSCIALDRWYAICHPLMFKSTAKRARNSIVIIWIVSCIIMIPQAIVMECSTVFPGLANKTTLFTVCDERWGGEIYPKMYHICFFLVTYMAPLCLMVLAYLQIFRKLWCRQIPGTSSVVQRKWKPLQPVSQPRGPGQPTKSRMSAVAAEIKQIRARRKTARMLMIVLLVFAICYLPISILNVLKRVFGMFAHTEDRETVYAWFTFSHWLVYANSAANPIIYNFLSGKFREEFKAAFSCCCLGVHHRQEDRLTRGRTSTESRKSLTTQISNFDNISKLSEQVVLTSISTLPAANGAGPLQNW

Orexin receptor type 2 [25] = target: T8, Orexin receptor type 2; experiment: Counterscreen assay for antagonists of the orexin 1 receptor (OX1R; HCRTR1): Homogeneous Time Resolved Fluorescence (HTRF)-based cell-based dose response assay for antagonists of the orexin 2 receptor (OX2R; HCRTR2), run by assay provider.; assay type: functional
[26] = inhibitors of Vif binding to APOBEC3G peptide, primary screen, biochemical, TR-FRET, GST-Vif 1-94, biotin-A3G peptide, dose response retest (AID 1117319); assay type: functional;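 further: TR-FRET signal of purified GST-Vif binding a biotinylated A3G peptide; inhibitors lower the FRET signal by blocking Vif and A3G binding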
Cytochrome P450 3A4 = Cytochrome P450 3A4 (Homo sapiens, UniProt P08684);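 further: CYP3A4 tested as one member of a cytochrome P450 panel screen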
Cytochrome P450 2C9 = Cytochrome P450 2C9 (Homo sapiens, UniProt P11712)
Chain of Cytochrome P450 2C9 (P11712 whole entry): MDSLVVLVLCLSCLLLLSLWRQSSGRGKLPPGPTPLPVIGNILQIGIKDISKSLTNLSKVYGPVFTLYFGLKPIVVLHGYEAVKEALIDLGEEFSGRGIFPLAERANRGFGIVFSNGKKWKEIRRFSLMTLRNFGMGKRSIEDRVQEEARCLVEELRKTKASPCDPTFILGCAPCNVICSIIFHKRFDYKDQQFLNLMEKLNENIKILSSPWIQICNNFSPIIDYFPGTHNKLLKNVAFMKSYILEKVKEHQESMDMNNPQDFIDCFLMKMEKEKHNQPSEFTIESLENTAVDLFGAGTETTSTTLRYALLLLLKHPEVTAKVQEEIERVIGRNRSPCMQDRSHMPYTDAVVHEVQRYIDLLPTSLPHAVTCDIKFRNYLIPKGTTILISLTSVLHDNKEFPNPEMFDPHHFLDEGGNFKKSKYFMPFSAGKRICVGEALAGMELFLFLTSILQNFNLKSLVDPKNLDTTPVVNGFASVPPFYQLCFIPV

T5 sequence (P0DMV8 whole entry): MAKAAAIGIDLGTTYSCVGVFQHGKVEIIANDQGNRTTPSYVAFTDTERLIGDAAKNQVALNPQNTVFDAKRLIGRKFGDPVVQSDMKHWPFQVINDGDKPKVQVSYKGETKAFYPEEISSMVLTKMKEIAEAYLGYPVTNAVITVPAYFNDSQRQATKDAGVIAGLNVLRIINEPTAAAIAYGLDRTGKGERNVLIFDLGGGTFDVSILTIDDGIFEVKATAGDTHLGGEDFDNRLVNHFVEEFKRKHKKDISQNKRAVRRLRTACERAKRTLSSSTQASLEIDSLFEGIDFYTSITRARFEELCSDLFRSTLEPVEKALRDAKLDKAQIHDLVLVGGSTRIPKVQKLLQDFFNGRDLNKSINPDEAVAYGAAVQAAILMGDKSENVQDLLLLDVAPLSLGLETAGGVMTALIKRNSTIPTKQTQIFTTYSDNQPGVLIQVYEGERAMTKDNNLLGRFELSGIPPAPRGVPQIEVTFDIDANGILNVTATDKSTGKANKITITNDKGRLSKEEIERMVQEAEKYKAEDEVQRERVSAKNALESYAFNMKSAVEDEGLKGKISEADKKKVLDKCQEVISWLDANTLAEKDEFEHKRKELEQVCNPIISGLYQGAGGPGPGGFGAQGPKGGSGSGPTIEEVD
T6 sequence (Q92731 whole entry): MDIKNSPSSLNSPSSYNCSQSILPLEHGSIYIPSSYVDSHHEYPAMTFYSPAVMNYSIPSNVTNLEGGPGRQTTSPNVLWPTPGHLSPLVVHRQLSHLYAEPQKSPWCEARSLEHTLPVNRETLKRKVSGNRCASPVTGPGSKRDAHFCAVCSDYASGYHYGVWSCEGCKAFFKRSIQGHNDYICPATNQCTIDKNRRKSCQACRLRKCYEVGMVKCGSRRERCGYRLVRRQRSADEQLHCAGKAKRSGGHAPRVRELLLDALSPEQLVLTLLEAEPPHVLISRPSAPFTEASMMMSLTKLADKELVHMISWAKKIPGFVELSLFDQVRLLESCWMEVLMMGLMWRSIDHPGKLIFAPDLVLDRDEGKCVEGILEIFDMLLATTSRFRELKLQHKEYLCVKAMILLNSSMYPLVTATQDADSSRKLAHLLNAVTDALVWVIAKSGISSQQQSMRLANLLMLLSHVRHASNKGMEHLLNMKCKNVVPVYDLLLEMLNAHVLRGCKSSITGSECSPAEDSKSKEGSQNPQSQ
Chain of Sphingosine 1-phosphate receptor 1 (P21453 whole entry): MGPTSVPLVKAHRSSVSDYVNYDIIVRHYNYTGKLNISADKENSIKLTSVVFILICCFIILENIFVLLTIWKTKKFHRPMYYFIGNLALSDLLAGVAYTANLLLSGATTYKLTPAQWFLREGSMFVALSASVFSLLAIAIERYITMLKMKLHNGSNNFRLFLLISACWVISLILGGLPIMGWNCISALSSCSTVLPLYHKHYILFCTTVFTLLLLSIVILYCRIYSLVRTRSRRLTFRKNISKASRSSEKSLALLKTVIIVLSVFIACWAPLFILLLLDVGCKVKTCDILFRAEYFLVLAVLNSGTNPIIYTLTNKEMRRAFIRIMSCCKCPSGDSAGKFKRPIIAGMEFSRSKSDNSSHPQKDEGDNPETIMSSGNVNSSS
Chain of Protein-tyrosine kinase 2-beta (Q14289 whole entry): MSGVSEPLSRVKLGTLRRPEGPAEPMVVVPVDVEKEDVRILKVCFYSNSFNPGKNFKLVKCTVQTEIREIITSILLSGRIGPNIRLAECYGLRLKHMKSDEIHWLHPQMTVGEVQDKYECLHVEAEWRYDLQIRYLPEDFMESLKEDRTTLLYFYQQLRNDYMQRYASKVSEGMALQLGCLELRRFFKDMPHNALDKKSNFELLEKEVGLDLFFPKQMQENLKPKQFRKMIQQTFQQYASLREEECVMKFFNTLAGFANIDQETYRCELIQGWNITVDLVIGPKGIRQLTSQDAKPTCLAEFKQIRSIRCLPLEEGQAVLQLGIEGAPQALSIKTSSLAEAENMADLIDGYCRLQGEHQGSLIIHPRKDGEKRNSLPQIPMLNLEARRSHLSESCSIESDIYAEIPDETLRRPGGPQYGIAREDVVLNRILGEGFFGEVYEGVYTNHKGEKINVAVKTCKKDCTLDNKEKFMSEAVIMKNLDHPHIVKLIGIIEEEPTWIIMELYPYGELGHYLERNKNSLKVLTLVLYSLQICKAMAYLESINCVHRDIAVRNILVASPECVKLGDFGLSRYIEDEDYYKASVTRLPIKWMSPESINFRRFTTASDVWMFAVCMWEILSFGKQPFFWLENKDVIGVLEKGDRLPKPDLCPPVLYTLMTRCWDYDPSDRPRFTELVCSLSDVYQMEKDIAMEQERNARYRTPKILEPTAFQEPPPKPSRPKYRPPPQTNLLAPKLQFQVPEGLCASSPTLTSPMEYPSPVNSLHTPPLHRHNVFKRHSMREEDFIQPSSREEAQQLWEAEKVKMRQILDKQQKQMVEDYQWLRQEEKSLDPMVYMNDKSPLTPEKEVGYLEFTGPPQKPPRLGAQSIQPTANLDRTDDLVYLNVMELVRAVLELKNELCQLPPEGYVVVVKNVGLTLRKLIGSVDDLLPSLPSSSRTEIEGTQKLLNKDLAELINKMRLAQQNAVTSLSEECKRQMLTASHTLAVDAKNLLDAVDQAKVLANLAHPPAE
Chain of Cytochrome P450 2C19 (P33261 whole entry): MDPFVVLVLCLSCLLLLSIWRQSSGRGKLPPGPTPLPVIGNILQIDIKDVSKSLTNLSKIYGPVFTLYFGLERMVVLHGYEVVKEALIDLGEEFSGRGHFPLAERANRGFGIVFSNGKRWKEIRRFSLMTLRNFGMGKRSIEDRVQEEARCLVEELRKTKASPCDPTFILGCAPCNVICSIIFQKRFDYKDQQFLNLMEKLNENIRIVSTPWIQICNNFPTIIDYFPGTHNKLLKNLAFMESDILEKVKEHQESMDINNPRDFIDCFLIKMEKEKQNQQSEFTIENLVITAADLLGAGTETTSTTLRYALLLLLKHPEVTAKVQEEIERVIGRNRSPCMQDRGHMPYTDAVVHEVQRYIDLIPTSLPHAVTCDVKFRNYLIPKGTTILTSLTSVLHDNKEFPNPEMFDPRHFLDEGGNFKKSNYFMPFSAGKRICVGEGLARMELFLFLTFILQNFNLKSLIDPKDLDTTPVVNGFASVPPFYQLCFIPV
Chain of Cytochrome P450 3A4 (P08684 whole entry): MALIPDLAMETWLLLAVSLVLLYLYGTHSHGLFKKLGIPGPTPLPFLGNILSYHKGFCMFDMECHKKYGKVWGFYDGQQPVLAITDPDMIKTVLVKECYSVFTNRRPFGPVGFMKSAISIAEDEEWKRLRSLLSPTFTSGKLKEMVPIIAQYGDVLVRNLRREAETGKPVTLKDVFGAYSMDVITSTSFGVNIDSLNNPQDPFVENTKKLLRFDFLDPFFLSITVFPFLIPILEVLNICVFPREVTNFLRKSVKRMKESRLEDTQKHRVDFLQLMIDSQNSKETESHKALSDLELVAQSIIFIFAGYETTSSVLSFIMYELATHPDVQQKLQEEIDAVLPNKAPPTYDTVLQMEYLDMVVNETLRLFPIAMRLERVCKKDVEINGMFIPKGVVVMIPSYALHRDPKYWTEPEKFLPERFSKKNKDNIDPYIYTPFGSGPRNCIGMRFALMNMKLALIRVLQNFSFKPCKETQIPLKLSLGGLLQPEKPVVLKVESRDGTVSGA
Chain of Sphingosine 1-phosphate receptor 4 (O95977 whole entry): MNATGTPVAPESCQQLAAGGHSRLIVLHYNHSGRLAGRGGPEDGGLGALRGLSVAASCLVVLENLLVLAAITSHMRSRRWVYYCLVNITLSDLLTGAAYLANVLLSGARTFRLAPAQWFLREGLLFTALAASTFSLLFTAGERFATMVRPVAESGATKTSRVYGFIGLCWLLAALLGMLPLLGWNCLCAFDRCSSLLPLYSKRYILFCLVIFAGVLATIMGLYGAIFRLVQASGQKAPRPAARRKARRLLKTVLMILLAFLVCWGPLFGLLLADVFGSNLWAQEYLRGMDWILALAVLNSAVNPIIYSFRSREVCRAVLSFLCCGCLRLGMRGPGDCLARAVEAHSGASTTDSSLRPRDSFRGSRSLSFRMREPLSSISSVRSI

Compound: O=C1c2cccc3c([N+](=O)[O-])ccc(c23)C(=O)N1CC1CCCO1 (configuration not stated)
- IC50 [1]: 1.3 µM (active)
- IC50 [2]: 3.72 µM (active)

Compound: Cc1cccc(OCCNC(=O)c2ccc(Oc3ccc(C(F)(F)F)cc3[N+](=O)[O-])cc2)c1
- IC50 [3]: > 35 µM (not active)
- IC50 [4]: > 35 µM (not active)

Compound: CCOC(=O)N1CCN(S(=O)(=O)c2ccc(C(=O)Nc3nc4ccc(F)cc4s3)cc2)CC1
- EC50 (Estrogen receptor [5]): 11.6 µM (active)
- AC50 [6]: 4.79 µM (active)
- AC50 [7]: > 70 µM (inactive)
- AC50 [8]: 3.38 µM (active)

Compound: COc1ccccc1NC(=O)C1=C(C)NC(SCC(=O)c2ccc(Br)cc2)=C(C#N)C1c1ccco1 (configuration not stated)
- EC50 (Bcl-2-like protein 10): 6.24 µM (active)

Compound: Cc1ccc(C(=O)ONc2ccc(N=NC(=O)c3ccccc3O)cc2)cc1
- IC50 [9]: 12.4 µM (active)
- IC50 [10]: 25.2 µM (active)
- IC50 (Estrogen receptor [11]): 8.44 µM (active)
- IC50 (Estrogen receptor beta [12]): 8.2 µM (active)
- IC50 (Estrogen receptor beta [13]): < 0.023 µM (not active)
- AC50 [14]: 1.51 µM (active)

Compound: CSc1nc2ccc3nc(NC(=O)c4cccs4)sc3c2s1
- EC50 [15]: 25.5 µM (not active)
- EC50 [16]: 35.9 µM (not active)
- EC50 [17]: 6.88 µM (active)
- EC50 [18]: 28 µM (active)
- EC50 [19]: 33.2 µM (not active)
- EC50 (H4): > 120 µM (not active)
- IC50 [20]: 6.5 µM (active)
- IC50 (CHO-K1): > 66.2 µM (inactive)
- IC50 [21]: > 49.7 µM (inactive)
- IC50 [22]: 0.846 µM (active)
- IC50 [23]: 1.23 µM (active)
- AC50 (Cytochrome P450 2C19): 2.82 µM (inconclusive)
- IC50 (Orexin receptor type 2 [24]): > 88.8 µM (inactive)
- IC50 (Orexin receptor type 2 [25]): > 50 µM (inactive)
- IC50 [26]: > 100 µM (active)
- AC50 (Cytochrome P450 3A4): 20 µM (inconclusive)
- AC50 (Cytochrome P450 2C9): 0.355 µM (inconclusive)

Reference: ChEMBL document CHEMBL1201862, “PubChem BioAssay data set” (2004)
